Consider one molecule from US9884849B2, “Fluorinated benzofuranyl-pyrimidine derivatives containing a sulfoximine group” (Bayer Pharma Aktiengesellschaft, priority 2014, dated 2018).

Data set [1] can be described thus: Caco-2 permeation assay (Method 4). As to conditions: human, 2 μM test compound. The class given is in vitro ADME. As to the method:
4. Caco-2 Permeation Assay:
Caco-2 cells (purchased from DSMZ Braunschweig, Germany) were seeded at a density of 4.5×10^4 cells per well on 24 well insert plates, 0.4 μm pore size, and grown for 15 days in DMEM medium supplemented with 10% fetal bovine serum, 1% GlutaMAX (100×, GIBCO), 100 U/mL penicillin, 100 μg/mL streptomycin (GIBCO) and 1% non essential amino acids (100×). Cells were maintained at 37° C. in a humified 5% CO2 atmosphere. Medium was changed every 2-3 day. Before running the permeation assay, the culture medium was replaced by a FCS-free hepes-carbonate transport buffer (pH 7.2). For assessment of monolayer integrity the transepithelial electrical resistance (TEER) was measured. Test compounds were predissolved in DMSO and added either to the apical or basolateral compartment in final concentration of 2 μM in transport buffer. Before and after 2 h incubation at 37° C. samples were taken from both compartments. Analysis of compound content was done after precipitation with methanol by LC/MS/MS analysis. Permeability (Papp) was calculated in the apical to basolateral (A→B) and basolateral to apical (B→A) directions. The apparent permeability was calculated using following equation: Papp=(Vr/Po)(1/S)(P2/t)
Where Vr is the volume of medium in the receiver chamber, Po is the measured peak area or height of the test drug in the donor chamber at t=o, S the surface area of the monolayer, P2 is the measured peak area of the test drug in the acceptor chamber after 2 h of incubation, and t is the incubation time. The efflux ratio basolateral (B) to apical (A) was calculated by dividing the Papp B-A by the Papp A-B. In addition the compound recovery was calculated.

The next data set has as its target T1, CDK9/CycT1 (Homo sapiens, UniProt P50750).
T1 construct: Recombinant full-length His-tagged human CDK9 and CycT1; His; purchased Invitrogen PV4131; host or cells: insect cells
The data set can be described thus: CDK9/CycT1 kinase assay (Method 1a, TR-FRET). The class given is biochemical. The settings on record: 10 μM ATP. The text has this:
1a. CDK9/CycT1 Kinase Assay:
CDK9/CycT1-Inhibitory Activity of Compounds of the Present Invention was Quantified Employing the CDK9/CycT1 TR-FRET Assay as Described in the Following Paragraphs:
Recombinant full-length His-tagged human CDK9 and CycT1, expressed in insect cells and purified by Ni-NTA affinity chromatography, were purchased from Invitrogen (Cat. No PV4131). As substrate for the kinase reaction biotinylated peptide biotin-Ttds-YISPLKSPYKISEG (C-terminus in amid form) was used which can be purchased e.g. form the company JERINI Peptide Technologies (Berlin, Germany). For the assay 50 nl of a 100 fold concentrated solution of the test compound in DMSO was pipetted into a black low volume 384 well microtiter plate (Greiner Bio-One, Frickenhausen, Germany), 2 μl of a solution of CDK9/CycT1 in aqueous assay buffer [50 mM Tris/HCl pH 8.0, 10 mM MgCl2, 1.0 mM dithiothreitol, 0.1 mM sodium ortho-vanadate, 0.01% (v/v) Nonidet-P40 (Sigma)] were added and the mixture was incubated for 15 min at 22° C. to allow pre-binding of the test compounds to the enzyme before the start of the kinase reaction. Then the kinase reaction was started by the addition of 3 μl of a solution of adenosine-tri-phosphate (ATP, 16.7 μM=>final conc. in the 5 μl assay volume is 10 μM) and substrate (1.67 μM=>final conc. in the 5 μl assay volume is 1 μM) in assay buffer and the resulting mixture was incubated for a reaction time of 25 min at 22° C. The concentration of CDK9/CycT1 was adjusted depending of the activity of the enzyme lot and was chosen appropriate to have the assay in the linear range, typical concentrations were in the range of 1 μg/mL. The reaction was stopped by the addition of 5 μl of a solution of TR-FRET detection reagents (0.2 μM streptavidine-XL665 [Cisbio Bioassays, Codolet, France] and 1 nM anti-RB(pSer807/pSer811)-antibody from BD Pharmingen [#558389] and 1.2 nM LANCE EU-W1024 labeled anti-mouse IgG antibody [Perkin-Elmer, product no. AD0077]) in an aqueous EDTA-solution (100 mM EDTA, 0.2% (w/v) bovine serum albumin in 100 mM HEPES/NaOH pH 7.0).
The resulting mixture was incubated 1 h at 22° C. to allow the formation of complex between the phosphorylated biotinylated peptide and the detection reagents. Subsequently the amount of phosphorylated substrate was evaluated by measurement of the resonance energy transfer from the Eu-chelate to the streptavidine-XL. Therefore, the fluorescence emissions at 620 nm and 665 nm after excitation at 350 nm was measured in a HTRF reader, e.g. a Rubystar (BMG Labtechnologies, Offenburg, Germany) or a Viewlux (Perkin-Elmer). The ratio of the emissions at 665 nm and at […] was taken as the measure for the amount of phosphorylated substrate. The data were normalised (enzyme reaction without inhibitor=0% inhibition, all other assay components but no enzyme=100% inhibition).

SMILES strings stand for the structures.

T1 sequence (P50750 whole entry): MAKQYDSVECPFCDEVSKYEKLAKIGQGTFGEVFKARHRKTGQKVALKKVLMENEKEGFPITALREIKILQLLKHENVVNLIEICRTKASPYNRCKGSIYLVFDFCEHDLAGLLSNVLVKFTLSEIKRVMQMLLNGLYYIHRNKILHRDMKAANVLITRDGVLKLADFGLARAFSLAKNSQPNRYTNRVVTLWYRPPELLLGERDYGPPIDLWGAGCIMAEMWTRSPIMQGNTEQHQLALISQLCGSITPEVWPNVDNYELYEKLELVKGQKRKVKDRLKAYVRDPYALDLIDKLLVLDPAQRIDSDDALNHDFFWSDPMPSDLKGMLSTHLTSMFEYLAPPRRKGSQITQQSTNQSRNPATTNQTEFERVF
T1 sequence (O60563 whole entry partner): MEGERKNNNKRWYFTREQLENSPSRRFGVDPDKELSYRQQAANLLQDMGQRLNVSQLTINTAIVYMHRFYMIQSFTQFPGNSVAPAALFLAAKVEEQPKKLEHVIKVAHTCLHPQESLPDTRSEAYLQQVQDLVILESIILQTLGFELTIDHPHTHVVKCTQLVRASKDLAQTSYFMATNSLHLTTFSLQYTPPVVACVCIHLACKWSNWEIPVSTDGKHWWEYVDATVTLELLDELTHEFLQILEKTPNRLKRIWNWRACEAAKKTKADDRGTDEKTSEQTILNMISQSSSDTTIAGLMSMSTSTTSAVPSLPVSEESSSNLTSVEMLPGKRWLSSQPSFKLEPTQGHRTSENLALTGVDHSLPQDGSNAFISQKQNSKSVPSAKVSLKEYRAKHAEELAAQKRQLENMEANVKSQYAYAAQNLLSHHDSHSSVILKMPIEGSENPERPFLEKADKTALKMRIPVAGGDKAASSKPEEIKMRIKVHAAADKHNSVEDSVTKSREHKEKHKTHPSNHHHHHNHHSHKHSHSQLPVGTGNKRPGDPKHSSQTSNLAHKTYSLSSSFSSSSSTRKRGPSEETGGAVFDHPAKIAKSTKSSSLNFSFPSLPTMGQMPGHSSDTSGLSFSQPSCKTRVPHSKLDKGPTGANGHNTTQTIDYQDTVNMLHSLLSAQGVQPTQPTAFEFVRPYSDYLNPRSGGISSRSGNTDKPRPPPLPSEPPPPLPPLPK

For orientation: Papp A→B means the apparent permeability from the apical to the basolateral side of a cell layer. As usually defined, the Papp B→A is how fast a substance crosses the layer from the basolateral side. As a reminder, the IC50 is the concentration that gives 50% inhibition. Take `CS(=N)(=O)Cc1cccc(Nc2ncc(F)c(-c3ccc(F)c4ccoc34)n2)c1` (single isomer, unassigned) [Example 6, 5-Fluoro-4-(4-fluoro-1-benzofuran-7-yl)-N-{3-[(S-methylsulfonimidoyl)-methyl]-phenyl}-pyrimidin-2-amine]: the efflux ratio at 2 h, 2 μM in data set [1] (Caco-2, pH 7.2, read-out: Efflux ratio (Papp B-A/Papp A-B)) was 0.51. In addition, the apparent permeability from apical to basolateral (Papp A→B) at 2 h, 2 μM in data set [1] (Caco-2, 2 h incubation, pH 7.2, read-out: Papp A-B (Mari)) was 221 nm/s. Moreover, in data set [1] (Caco-2, 2 h incubation, pH 7.2, read-out: Papp B-A (Mari)), the Papp B→A at 2 h, 2 μM amounted to 113 nm/s. Besides, the concentration for half-maximal inhibition (IC50) on CDK9/CycT1 was determined as 2.6 nM. For the same molecule, the “Selectivity CDK9 over CDK2: IC50 (CDK2)/IC50 (CDK9)” value at CDK9/CycT1 (Methods 1a. and 2a.) amounted to 22.
